Assay results taken from PubChem BioAssay (NCI).
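96-well plates; 48 h exposure; 5 concentrations. Endpoints by linear interpolation between flanking doses. Not reached: highest tested concentration assigned. The concentration for 50% growth inhibition is given as GI50. TGI marks complete inhibition of growth.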

What was measured:
Test in all cases: NCI-60 cell line screen, 48 h
SW-620 colon = system: SW-620 colon
786-0 renal = system: 786-0 renal
NCI-H226 lung = system: NCI-H226 lung
M14 melanoma = system: M14 melanoma
SK-MEL-28 melanoma = system: SK-MEL-28 melanoma
HCC-2998 colon = system: HCC-2998 colon
SK-MEL-2 melanoma = system: SK-MEL-2 melanoma
HT29 colon = system: HT29 colon
OVCAR-5 ovarian = system: OVCAR-5 ovarian
NCI/ADR-RES ovarian = system: NCI/ADR-RES ovarian

Compound | GI50 (SW-620 colon) | TGI (SW-620 colon) | GI50 (786-0 renal) | TGI (786-0 renal) | GI50 (NCI-H226 lung) | TGI (NCI-H226 lung) | GI50 (M14 melanoma) | TGI (M14 melanoma) | GI50 (SK-MEL-28 melanoma) | TGI (SK-MEL-28 melanoma) | GI50 (HCC-2998 colon) | TGI (HCC-2998 colon) | GI50 (SK-MEL-2 melanoma) | TGI (SK-MEL-2 melanoma) | GI50 (HT29 colon) | TGI (HT29 colon) | GI50 (OVCAR-5 ovarian) | TGI (OVCAR-5 ovarian) | GI50 (NCI/ADR-RES ovarian) | TGI (NCI/ADR-RES ovarian)
CCCc1cc(=O)n2c(C(=O)Nc3ccc(F)cc3)c(C(=O)Nc3ccc(F)cc3)sc2n1 | 56.5 µM | > 160 µM | 2.64 µM | 13.3 µM | 1.71 µM | 16.3 µM | 23.5 µM | 81 µM | 56.5 µM | > 160 µM | > 160 µM | > 160 µM | 24.1 µM | 54.4 µM | 47.1 µM | > 160 µM | > 160 µM | > 160 µM | 134 µM | > 160 µM
COc1cc(C2C3=C(COC3=O)N(CCO)c3cc4c(cc32)OCCO4)cc(OC)c1OC (centres undefined) | 0.226 µM | > 50 µM | 0.369 µM | > 50 µM | 4.48 µM | > 50 µM | 0.181 µM |  | > 50 µM | > 50 µM | 0.127 µM | 0.335 µM | 0.173 µM | 4.55 µM | 0.166 µM |  | 2.09 µM | > 50 µM | 6.75 µM | > 40.7 µM
Cc1ccc([N+](=O)[O-])c2c(NCCNC(=O)c3cc(C(=O)NCCNc4ccnc5c(C)ccc([N+](=O)[O-])c45)n(C)n3)ccnc12 |  | 53.4 µM |  | 98.2 µM |  | > 100 µM |  | > 100 µM |  | > 78 µM |  | > 100 µM |  | > 100 µM |  | > 100 µM |  | > 100 µM |  | > 100 µM
O=C(/C=C/C=C/c1ccccc1)c1ccco1 | 13.4 µM | 28.6 µM | 15.2 µM | 32.5 µM | 20.7 µM | 50.2 µM | 17.3 µM | 34.8 µM | 17 µM | 31.6 µM | 15 µM | 28.3 µM | 18.8 µM | 37.3 µM | 16.7 µM | 33.5 µM | 18.4 µM | 33.3 µM | 16.4 µM | 36.7 µM
COc1ccc(-c2nc(-c3nc4ccc(C)cc4[nH]3)cc3c2[nH]c2ccccc23)cc1 | 6.23 µM | > 100 µM | 19.3 µM | > 100 µM | 4.81 µM | 58.7 µM | 3.09 µM | 11.7 µM | 5 µM | > 100 µM | 7.61 µM | > 100 µM | 3.11 µM | 9.22 µM | 5.29 µM | > 100 µM | 6.83 µM | > 100 µM | 3.72 µM | > 100 µM
Cc1ccc(-c2nc(/C=N/Nc3cc(C)nc4ccc(Cl)cc34)c(C)o2)cc1 | 0.485 µM | 2.07 µM | 1.42 µM | 2.76 µM | 1.84 µM | 3.72 µM | 1.8 µM | 3.49 µM | 1.81 µM | 3.29 µM | 2.07 µM | 3.77 µM | 2.01 µM | 4.11 µM | 0.664 µM | 2.5 µM | 1.72 µM | 3.39 µM | 2.1 µM | 4.67 µM
CC/C(Cc1ccccc1)=C(\c1ccc(OCCN2CCCC2)cc1)c1ccc(OC(=O)NCc2ccccc2)cc1 | 1.93 µM | 3.77 µM | 1.64 µM | 3 µM | 3.52 µM | 14.2 µM | 1.73 µM | 3.31 µM | 1.72 µM | 3.18 µM | 1.51 µM | 2.94 µM | 2.09 µM | 3.99 µM | 1.82 µM | 3.47 µM | 1.93 µM | 4.65 µM | 2.66 µM | 10.3 µM
COc1ccc(/C=C/c2c(C(=O)/C=C/c3ccc(C(F)(F)F)cc3)c(C)nc3ccccc23)cc1 | 1.48 µM | 4.7 µM | 1.61 µM | 3.02 µM | 1.85 µM | 4.01 µM |  |  | 1.82 µM | 3.47 µM | 1.51 µM | 3.07 µM | 2.05 µM | 4.64 µM | 1.13 µM | 6.6 µM | 2.13 µM | 5.53 µM | 2.36 µM | 7.46 µM
O=C(Nc1ccccc1I(=O)=O)C1CCCCC1 | > 100 µM | > 100 µM | > 100 µM | > 100 µM | > 100 µM | > 100 µM |  |  | > 100 µM | > 100 µM | > 100 µM | > 100 µM | > 100 µM | > 100 µM | > 100 µM | > 100 µM | > 100 µM | > 100 µM | > 100 µM | > 100 µM
CN(C)CCCn1c(=O)c2ccccc2c2cnc3[nH]ccc3c21 | 0.529 µM | 3.66 µM | 0.85 µM | 10.9 µM | 0.862 µM | 2.58 µM | 1.83 µM | 4.44 µM | 2.23 µM | 5.18 µM | 2.03 µM | 7.72 µM | 1.79 µM | 5.38 µM | 1.27 µM | 8.35 µM | 2.27 µM | 14.9 µM | 1.25 µM | 6.24 µM
Nc1nc2c(C(=O)NCc3cccs3)nnn2c2cccc(Cl)c12 |  | > 100 µM |  | > 100 µM |  | > 100 µM |  | > 100 µM |  | > 100 µM |  | > 100 µM |  | > 100 µM |  | > 100 µM |  | > 100 µM |  | > 100 µM
O=C1/C(=C/c2ccc(F)cc2)CN(C(=O)CCN2CCC(=NO)CC2)C/C1=C\c1ccc(F)cc1 | 0.375 µM | 1.07 µM | 1.48 µM | 3.45 µM | 2.55 µM | 8.51 µM | 1.17 µM | 3.69 µM | 1.85 µM | 4.1 µM | 1.5 µM | 3.08 µM | 4.07 µM | 12.4 µM | 0.845 µM | 2.61 µM | 1.83 µM | 4.11 µM | 1.9 µM | 23.4 µM
Cc1cc(C)c(C#N)c(Sc2nc(C)c([N+](=O)[O-])c(C)c2C#N)n1 | 2.07 µM | 4.65 µM | 5.04 µM | 17.9 µM | 2.99 µM | 10.5 µM | 3.07 µM | 10.4 µM | 3.12 µM | 12.4 µM | 4.66 µM | 15.8 µM | 2.21 µM | 5.86 µM | 3.71 µM | 10.8 µM | 4.03 µM | 41.1 µM | 4.01 µM | 33.1 µM
